According to US5015661A, “Chromanes and their pharmaceutical compositions and methods” (Hoffmann-La Roche Inc., priority 1989, dated 1991):

Each compound was assayed on arachidonic acid-induced mouse ear edema (assay: Mouse ear edema test (in vivo), arachidonic acid-induced). Settings: 1 mg topical, CD-1 male mice, 0.5 mg arachidonic acid 0.5 or 4 hours later, ear biopsy weight after 1 hour, read-out: EAR EDEMA % INHIB. 1 mg.
Experimental: MOUSE EAR EDEMA TEST (IN VIVO)
In this animal model system, the application of arachidonic acid to the ear results in the biosynthesis of the metabolic products […]-6,8,11,14-eicosatetraenoic acid (5-HETE), leukotriene B4 (LTB4), leukotriene C4 (LTC4), […]-5,8,10,14-eicosatetraenoic acid (12-HETE), and prostaglandin E2 (PGE2) at the site of application, followed by the influx of neutrophils into the site and the rapid development of edema within 30 to 60 minutes (See, for instance, Young, Wagner and Spries, "Tachyphylaxis in 12-O-Tetradecanoylphorbol Acetate And Arachidonic Acid-Induced Ear Edma," J. Invest. Dermatol. 80:48 (1983) and Hames, Opas and Bonney, "Arachidonic Acid MetaboIites in Mouse Ear Edma" Advances in Inflammation Research. 11:57 (1986).
CD-1 male mice weighing 15 to 25 g were employed, and they were designated as follows: (1) Control Group, in which no arachidonic acid or test compound was to be applied, (2) Arachidonic Acid-Treated Group, in which no test compound was to be applied, and (3) Treated Group, in which the test compound was to be applied first, followed by the application of arachidonic acid.
In the case of the Group (3) animals, the test compound, dissolved in acetone, was applied to the dorsal surface of the right ear of the mouse with a 25-microliter pipette or, with the dose of the test compound being varied. After 0.5 hours in some cases and 4 hours in others, the arachidonic acid was topically applied in the same manner as above to the pretreated ear areas. In each case of arachidonic acid application, an amount of 0.5 mg dissolved in 25 microliters of acetone was used. After 1 hour, the mice were sacrificed by carbon dioxide inhalation. A 6mm-diameter standard biopsy punch was used to obtain a uniform tissue sample from the ear of each mouse so treated, and the tissue samples were weighted to the nearest 0.1 mg. The percent inhibition of ear edema formation was calculated as follows: [formula]
Cc1c(C)c2c(c(C)c1O)CCC(C)(c1cc3ncccc3o1)O2 (racemic) [Example 52, rac-3,4-Dihydro-2-(furo[3,2-b]pyridine-2-yl)-2,5,7,8-tetramethyl-2H-1-benzopyran-6-ol] gave an inhibition in vivo at 1 mg of 49%.
Compound Cc1c(C)c2c(c(C)c1O)CCC(C)(CCc1cccs1)O2 (racemic) [Example 57, rac-3,4-Dihydro-2,5,7,8-tetramethyl-2-[2-(2-thienyl)ethyl]-2H-1-benzo-pyran-6-ol] has an inhibition in vivo at 1 mg of 41%.
With Cc1c(C)c2c(c(C)c1O)CCC(C)(C#Cc1ccccn1)O2 (racemic) [Example 15, rac-3,4-Dihydro-2,5,7,8-tetramethyl1-2-[(2-pyridinyl)ethynyl]-2H-1-benzopyran-6-ol] the inhibition in vivo at 1 mg was 18%.
Work on Cc1c(C)c2c(c(C)c1O)CCC(C)(C#Cc1csc3ccccc13)O2 (racemic) [Example 16, rac-[2-(Benzo[b]thiophen-3-yl)ethynyl]-3.4-dihydro-2,5,7,8-tetramethyl-2H-1-benzopyran-2H-1-benzopyran-6-ol] yielded an inhibition in vivo at 1 mg of 62%.
Cc1c(C)c2c(c(C)c1O)CCC(C)(C#Cc1cccc(C(F)(F)F)c1)O2 (racemic) [Example 35, rac-2-{[3-(Trifluoromethyl)phenyl]ethynyl-3,4-dihydro-2,5,7,8-tetramethyl-2H-1-benzopyran-6-ol] showed an inhibition in vivo at 1 mg of 15%.
In the case of CC(=O)Oc1cc(C#CC2(C)CCc3c(C)c(O)c(C)c(C)c3O2)ccc1OCc1ccccc1 (racemic) [Example 41, rac-2-{[3-Acetyloxy-4-(phenylmethoxy)phenyl]ethynyl}-3,4-dihydro-2,5,7,8-tetramethyl-2H-1-benzopyran-6-ol], the inhibition in vivo at 1 mg was 31%.
CCCCc1ccc(C#CC2(C)CCc3c(C)c(O)c(C)c(C)c3O2)s1 (racemic) [Example 31, rac-2-[(5-Butyl-2-thienyl)ethynyl]-3,4-dihydro-2,5,7,8-tetramethyl-2H-1-benzopyran-6-ol] showed an inhibition in vivo at 1 mg of 24%.
For Cc1c(C)c2c(c(C)c1O)CCC(C)(CCc1ccc(O)c(O)c1)O2 (racemic) [Example 61, rac-4-[2-(3,4-Dihydro-6-hydroxy-2,5,7,8-tetramethyl-2H-1-benzopyran-2-yl)ethyl]-1,2-benzenediol], the inhibition in vivo at 1 mg was 55%.
In the case of Cc1c(C)c2c(c(C)c1O)CCC(C)(CCc1ccccn1)O2 (racemic) [Example 58, rac-3,4-Dihydro-2,5,7,8-tetramethyl-2-[2-(2-pyridinyl)ethyl]-2H-1-benzopyran-6-ol], the inhibition in vivo at 1 mg was 31%.
Compound Cc1c(C)c2c(c(C)c1O)CC[C@](C)(C#Cc1cccs1)O2 [Example 5, (R)-3,4-Dihydro-2,5,7,8-tetramethyl-2-[(2-thienyl)ethynyl]-2H-1-benzopvran-6-ol] has an inhibition in vivo at 1 mg of 66%.
Compound Cc1c(C)c2c(c(C)c1O)CCC(C)(C#Cc1cccnc1)O2 (racemic) [Example 14, rac-3,4-Dihydro-2,5,7,8-tetramethyl-2-[(3-pyridinyl)ethynyl]-2H-1-benzopyran-6-ol] has an inhibition in vivo at 1 mg of 20%.
In the case of Cc1c(C)c2c(c(C)c1O)CCC(C)(C#Cc1ccc(OCc3ccccc3)c(O)c1)O2 (racemic) [Example 43, rac-3,4-Dihydro-2-{[3-hydroxy-4-(phenylmethoxY)phenyl]-ethynyl}-2,5,7,8-tetramethyl-2H-1-benzopyran-6-ol], the inhibition in vivo at 1 mg was 31%.
Compound Cc1c(C)c2c(c(C)c1O)CCC(C)(C#Cc1ccccc1)O2 (racemic) [Example 1, rac-3,4-Dihydro-2,5,7,8-tetramethyl-2-(phenylethynyl)-2H-1-benzopyran-6-ol] has an inhibition in vivo at 1 mg of 45%.
Cc1c(C)c2c(c(C)c1O)CCC(C)(CCc1cccnc1)O2 (racemic) [Example 59, rac-3,4-Dihydro-2,5,7,8-tetramethyl-2-[2-(3-pyridinyl)ethyl]-2H-1-benzopyran-6-ol] showed an inhibition in vivo at 1 mg of 48%.
Compound Cc1c(C)c2c(c(C)c1O)CCC(C)(c1cc3ccccc3o1)O2 (racemic) [Example 50 (CH; H, H, H), rac-2-(2-Benzofuranyl)-3,4-dihydro-2,5,7,8-tetramethyl-2H-1-benzopyran-6-ol] has an inhibition in vivo at 1 mg of 68%.
Cc1c(C)c2c(c(C)c1O)CCC(C)(C#Cc1cccs1)O2 (racemic) [Example 4, rac-3,4-Dihydro-2,5,7,8-tetramethyl-2-[(2-thienyl)ethynyl]-2H-1-benzopyran-6-ol] was tested, and the inhibition in vivo at 1 mg was 61%.
With Cc1ccc2oc(C3(C)CCc4c(C)c(O)c(C)c(C)c4O3)cc2n1 (racemic) [Example 51, rac-3,4-Dihydro-2-(5-methylfuro[3,2[b]pyridin-2-yl)-2,5,7,8-tetramethyl-2H-1-benzopyran-6ol] the inhibition in vivo at 1 mg was 69%.
Cc1c(C)c2c(c(C)c1O)CC[C@@](C)(C#Cc1cccs1)O2 [Example 13, (S)-3,4-Dihydro-2,5,7,8-tetramethyl-2-[(2-thienyl)ethynyl]-2H-1-benzopyran-6-ol] gave an inhibition in vivo at 1 mg of 32%.
CCCc1c(O)c(C(C)=O)cc2cc(C3(C)CCc4c(C)c(O)c(C)c(C)c4O3)oc12 (racemic) [Example 53, rac-1-2-(3,4-Dihydro-6-hydroxy-2,5,7,8-tetramethyl-2H-1-benzopyran-2-yl)-6-hydroxy-7-propylbenzofuran-5-yl]ethanone] gave an inhibition in vivo at 1 mg of 54%.
